Results reported in ChEMBL document CHEMBL5052835, “Slc26a3 inhibitors and use thereof” (2021).
Calls of active or inactive are those of the source. No cut-off for these calls is given here.

Key:
Mus musculus [1] = experiment: In vivo inhibition of slc26a3 in loperamide-induced constipation model of female CD-1 mouse at 5 mg/kg, po co-administered with tenapanor assessed as reduction in stool water content; type: functional, organism-based
Mus musculus [2] = experiment: In vivo inhibition of slc26a3 in loperamide-induced constipation model of female CD-1 mouse at 5 mg/kg, po co-administered with tenapanor assessed as reduction in pellet number; type: functional, organism-based
[3] = biological target: T1, Chloride anion exchanger (Mus musculus) (UniProt Q9WVC8); experiment: Inhibition of mouse Slc26a3 transfected in rat FRT cells at 10 uM preincubated with forskolin, 8-Br-cGMP and PMA and measured by fluorescence assay relative to control; type: cell-based
T1 sequence (whole entry): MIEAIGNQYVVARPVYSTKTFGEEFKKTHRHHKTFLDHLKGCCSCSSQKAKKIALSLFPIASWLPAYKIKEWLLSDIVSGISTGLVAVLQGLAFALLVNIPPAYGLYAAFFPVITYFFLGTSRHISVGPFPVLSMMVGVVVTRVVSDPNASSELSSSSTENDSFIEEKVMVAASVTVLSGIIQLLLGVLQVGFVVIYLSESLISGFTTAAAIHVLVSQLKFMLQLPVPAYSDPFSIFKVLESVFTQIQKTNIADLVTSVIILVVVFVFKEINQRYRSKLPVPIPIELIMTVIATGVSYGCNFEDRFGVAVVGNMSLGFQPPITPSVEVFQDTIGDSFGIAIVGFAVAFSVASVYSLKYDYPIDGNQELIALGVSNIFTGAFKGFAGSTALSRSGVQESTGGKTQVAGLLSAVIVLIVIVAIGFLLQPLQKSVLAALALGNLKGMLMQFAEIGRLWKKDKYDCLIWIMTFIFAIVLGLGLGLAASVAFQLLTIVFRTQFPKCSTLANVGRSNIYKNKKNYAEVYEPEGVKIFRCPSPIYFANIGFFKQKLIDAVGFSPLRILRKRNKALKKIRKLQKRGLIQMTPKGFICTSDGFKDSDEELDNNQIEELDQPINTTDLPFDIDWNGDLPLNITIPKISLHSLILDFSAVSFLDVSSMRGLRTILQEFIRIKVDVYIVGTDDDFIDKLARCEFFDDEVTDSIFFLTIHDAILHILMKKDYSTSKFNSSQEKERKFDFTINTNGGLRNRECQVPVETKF

[4] = biological target: T2, Anoctamin-1 (Mus musculus) (UniProt Q8BHY3); experiment: Inhibition of mouse TMEM16A at 10 uM measured by cell-based fluorescence assay
T2 sequence (whole entry): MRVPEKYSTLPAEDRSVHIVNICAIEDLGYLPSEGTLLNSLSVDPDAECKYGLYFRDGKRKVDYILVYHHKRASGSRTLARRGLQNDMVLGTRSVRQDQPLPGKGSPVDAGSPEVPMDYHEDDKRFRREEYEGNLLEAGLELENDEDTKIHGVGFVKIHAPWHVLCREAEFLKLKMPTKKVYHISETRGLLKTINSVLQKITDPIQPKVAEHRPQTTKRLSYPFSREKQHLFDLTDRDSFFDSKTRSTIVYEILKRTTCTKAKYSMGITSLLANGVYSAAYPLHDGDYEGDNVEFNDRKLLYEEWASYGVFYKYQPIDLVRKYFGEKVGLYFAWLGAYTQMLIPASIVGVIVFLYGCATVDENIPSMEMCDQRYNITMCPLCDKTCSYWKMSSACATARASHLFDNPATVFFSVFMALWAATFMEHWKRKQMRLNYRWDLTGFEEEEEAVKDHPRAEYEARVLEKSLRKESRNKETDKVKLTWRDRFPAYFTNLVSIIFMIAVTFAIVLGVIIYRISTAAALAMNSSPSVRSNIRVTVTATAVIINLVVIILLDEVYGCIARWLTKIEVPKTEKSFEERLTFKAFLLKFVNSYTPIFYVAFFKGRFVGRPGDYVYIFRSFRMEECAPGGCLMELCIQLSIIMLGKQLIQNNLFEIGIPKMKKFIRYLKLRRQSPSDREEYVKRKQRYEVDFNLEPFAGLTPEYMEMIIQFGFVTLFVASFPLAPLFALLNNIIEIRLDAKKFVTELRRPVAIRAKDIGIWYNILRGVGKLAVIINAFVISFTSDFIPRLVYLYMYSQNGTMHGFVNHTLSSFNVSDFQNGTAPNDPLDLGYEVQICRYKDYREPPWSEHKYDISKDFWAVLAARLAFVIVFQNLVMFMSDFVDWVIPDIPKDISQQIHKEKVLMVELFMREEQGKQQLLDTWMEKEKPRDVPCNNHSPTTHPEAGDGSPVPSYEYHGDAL

HBE [5] = experiment: Inhibition of ENaC in human HBE cells at 10 uM pretreated with amiloride assessed as effect on short-circuit current responses; type: cell-based
HBE [6] = experiment: Inhibition of CFTR in human HBE cells at 10 uM pretreated with forskolin assessed as effect on short-circuit current responses; type: cell-based
Mus musculus [7] = experiment: In vivo inhibition of slc26a3 in loperamide-induced constipation model of female CD-1 mouse at 5 mg/kg, po co-administered with tenapanor assessed as reduction in stool weight; type: functional, organism-based
Mus musculus [8] = experiment: Inhibition of oxalate absorption in high oxalate and low calcium diet-induced oxalate nephropathy model of mouse at 5 mg/kg, po assessed as reduction in urine sediment; type: functional, organism-based
Jejunum [9] = experiment: Inhibition of fluid absorption in mid-jejunal loops isolated from female CD-1 mouse at 10 uM assessed as effect on reduction in loop weight/length ratio in presence of 10 microM tenapanor; type: functional, tissue-based
Mus musculus [10] = experiment: In vivo inhibition of slc26a3 in loperamide-induced constipation model of cystic fibrosis mouse at 5 mg/kg, po assessed as reduction in stool weight; type: functional, organism-based
Jejunum [11] = experiment: Inhibition of fluid absorption in mid-jejunal loops isolated from female CD-1 mouse at 10 uM assessed as effect on reduction in loop weight/length ratio; type: functional, tissue-based
Colon = experiment: Inhibition of fluid absorption in distal colonic loop isolated from female CD-1 mouse at 10 uM assessed as effect on reduction in loop weight/length ratio in presence of 10 microM tenapanor; type: functional, tissue-based
Mus musculus [12] = experiment: In vivo inhibition of slc26a3 in loperamide-induced constipation model of female CD-1 mouse at 5 mg/kg, po assessed as reduction in stool weight; type: functional, organism-based

With `Cc1c(CC(=O)O)c(=O)oc2c(C)c(OCc3cccc(Br)c3)ccc12` the inhibition (Mus musculus [1]) was “Active”, the inhibition (Mus musculus [2]) was “Active” and the inhibition [3] was over 50%. The inhibition [4] was “inactive”, the inhibition (HBE [5]) was “inactive” and the inhibition (HBE [6]) was “inactive”. For the same compound, the inhibition (Mus musculus [7]) was “Active”, the inhibition (Mus musculus [8]) was “Active” and the inhibition (Jejunum [9]) was “Active”. The inhibition (Mus musculus [10]) was “Active”, the inhibition (Jejunum [11]) was “Active” and the inhibition (Colon) was “Active”. The inhibition (Mus musculus [12]) was “Active”.
